Key:
[1] = system: Mouse B16 melanoma cells (4A5); experiment: Cell viability (MTT method) in B16 cells; type: cell-based; conditions: under a concentration of 25 μM, with 400 μM IBMX, 2 days
Method: The ranges of non-toxic concentrations of the compounds toward the B16 cells was first determined with the 3-(4,5-dimethylthiazol-2-yl)-2,5-diphenyltetrazolium bromide (MTT) method. Mouse B16 melanoma cells (4A5) was purchased from the Bioresources Collection and Research Center (BCRC, Food Industry Research and Development Institute, Hsinchu, Taiwan). Determinations of cell viability and melanin content were performed as previously reported [Appl. Microbiol. Biotechnol. 2007; 73:1169-1172] and described briefly below. Dulbecco's modified Eagle's medium (DMEM) containing 10% (v/v) fetal bovine serum was used to cultivate mouse B16 cells, which were incubated at 37° C. in a humidified, CO2-controlled (5%) incubator. After 1 day of incubation, the cells were treated with tested drugs in the presence of a melanogenesis stimulation agent (400 μM of 3-isobutyl-1-methylxanthine (IBMX)) for another 2 days. Then, the drug-treated cells were harvested and the cell viability and melanin content were measured according to the previous study [Curr. Pharma. Biotechnol. 2015; 16:1085-1093]. […]
The X axis includes different treatment conditions, and the Y axis of the results represents cell survival rate or relative melanin content. Both of the cell survival rate and the relative melanin content are expressed as percentage of control (% of control). […]

[2] = system: Mouse B16 melanoma cells (4A5); experiment: Melanin content / inhibition of melanogenesis in IBMX-stimulated B16 cells; type: cell-based
Method: The ranges of non-toxic concentrations of the compounds toward the B16 cells was first determined with the 3-(4,5-dimethylthiazol-2-yl)-2,5-diphenyltetrazolium bromide (MTT) method. Mouse B16 melanoma cells (4A5) was purchased from the Bioresources Collection and Research Center (BCRC, Food Industry Research and Development Institute, Hsinchu, Taiwan). Determinations of cell viability and melanin content were performed as previously reported [Appl. Microbiol. Biotechnol. 2007; 73:1169-1172] and described briefly below. Dulbecco's modified Eagle's medium (DMEM) containing 10% (v/v) fetal bovine serum was used to cultivate mouse B16 cells, which were incubated at 37° C. in a humidified, CO2-controlled (5%) incubator. After 1 day of incubation, the cells were treated with tested drugs in the presence of a melanogenesis stimulation agent (400 μM of 3-isobutyl-1-methylxanthine (IBMX)) for another 2 days. Then, the drug-treated cells were harvested and the cell viability and melanin content were measured according to the previous study [Curr. Pharma. Biotechnol. 2015; 16:1085-1093]. In this experiment, cells only treated with IBXM is used as a negative control and cells treated with 20 μM danazol is used as a positive control.
The X axis includes different treatment conditions, and the Y axis of the results represents cell survival rate or relative melanin content. Both of the cell survival rate and the relative melanin content are expressed as percentage of control (% of control). […] Accordingly, the 25 μM was used as the maximum concentration in the determination of the inhibition of melanogenesis.
Pharm. Res. 2010; 33:1959-19].

melanogenesis = conditions: Arch. Pharm. Res. 2010; cited from earlier work
[3] = non-toxic concentrations, 400 μM IBMX, 2 days

SMILES | cytotoxicity (cell survival rate) [1] | inhibition of melanogenesis ([2]; 6.25 μM and 25 μM, compared with the control group) | activity at 25 µM ([2]; Mus musculus, 48 h, 25 μM, 400 μM IBMX, 2 days, read-out: melanin content (% of control)) [%] | inhibition of melanogenesis compared with positive control danazol ([2]; danazol 20 μM) | inhibition of melanogenesis [2, 3] | inhibition of melanogenesis ([2]; non-toxic concentrations, 400 μM IBMX, 2 days, listed as 7,4′-dihydroxy-8-methoxy-isoflavone) | melanogenesis inhibition (previously identified) (melanogenesis)
COc1c(O)ccc2c(=O)c(-c3ccc(O)cc3)coc12 [compound (1), 7,4′-dihydroxy-8-methoxy-isoflavone] | did not exhibit cytotoxicity | show inhibition of melanogenesis | 63.5 | greater than that produced by danazol | dose-dependently inhibited melanogenesis | inhibitory effect on melanogenesis | –
COc1ccc2c(=O)c(-c3ccc(O)cc3)coc2c1O [compound (2), 8,4′-dihydroxy-7-methoxy-isoflavone] | did not exhibit cytotoxicity | – | – | – | dose-dependently inhibited melanogenesis | – | –
C#C[C@]1(O)CC[C@H]2[C@@H]3CCC4=Cc5oncc5C[C@]4(C)[C@H]3CC[C@@]21C [danazol] | – | – | – | – | – | – | potent melanogenesis inhibitor
